What was measured:
[1] = test system: TRH-Induced Release of Radioactive (125I) Iodide from the Thyroid; assay: McKenzie Bioassay for TRH-Induced Release of Radioactive (125I) Iodide from the Thyroid; assay type: in vivo, Long-Evans male rats; details: worked Example; for (I-125) cpm/200 ul blood at THR: tail vein; for Δ cpm: net of saline control
Experimental: 16 Long-Evans male rats were maintained on an iodine deficient diet for 1 week. Each rat was then injected intraperitoneally (i.p.) with 20 μCi of radioactive (Na^125 I). Six hours before injection of the material to be tested, the animals were given 0.03% propylthioluracil (PTU) in their drinking water. This prevents the re-uptake of released ^125 I (iodoproteins such as mono- and diodo-tyrosines, T3 or T4) once they are released from the thyroid under the influence of TRH or TRH analogue. 24 hrs. after administration of the radioactive iodine (0.2 ml) 200 μl of blood was withdrawn from the tail vein of each rat, transferred quantitatively into a 12×75 mm test tube containing 1 ml of 0.9% saline and the ^125 I content counted by use of a Beckmann γ-ray spectrometer. One ml of TRH or TRH analogue dissolved in 0.9% NaCl (physiologic saline) was injected into the tail vein of each of four rats per dose considered (e.g. 0.4 μgm, 40 μgm, 80 μgm). 1 ml of 0.9% NaCl (physiologic saline) was injected also to each of four rats to serve as a control for stress-related influence (trauma from blood collecting procedure and anesthesia) on release of ^125 I from the thyroid gland. Once the saline control or designated dose of TRH or TRH analogue has been injected, blood samples (0.2 ml) are collected from the tail vein of each rat at 30 minutes, 1 hr, 2 hrs, and 3 hrs. and the ^125 I content evaluated as described above. Upon completion of the experiment, animals are kept for a 24 hr time period to observe any adverse toxicological effects. If they maintain their usual behavior (vital signs), it is assumed the compounds tested cause no overt physiological effects.
An increase in I-125 content above the basal level, as exemplified by the saline control, indicates a TRH induced release of TSH (thyrotropin stimulating hormone) which in turn causes release of I-125 from the thyroid. This type of response means the […] hormone physiologic mechanism (hypothalamo-pituitary-thyroid axis) is working properly, and the animals are suitable for testing. […] For each dose level considered, the radio-activity content of I-125 (cpm) per 200 μl of blood is evaluated at each time period and subtracted from the saline control radioactivity (I-125) content to obtain the Δ cpm released from thyroid. The net cpm released is therefore evaluated, rather than the absolute radio-activity for each time period and dose level.
To evaluate the effect of TRH analogues (TRH-CMK or TRH-DMK) on the TRH-TSH release of I-125 from the thyroid, each animal of a test group (4 animals) was injected with 1 ml of a given dose of the TRH analogue into the tail vein. […] Blood samples (0.2 ml) were then collected at various times (e.g. 1/2, 1 hr, 2 hrs, etc.) and evaluated for their I-125 content. […]

Serum TSH level = assay: 6 Point Parallel Line Assay, serum TSH level after inhibitor then TRH; assay type: in vivo; details: no inhibitor (saline injected)
Experimental: (§1) 6 Point Parallel Line Assay Design:
(§2) 3 sample, 3 standard samples
(§3) Responses expressed in (Ng/ml)
(§4) Animals challenged with peptide derivative dissolved in 0.85% NaCl.
(§5) Total Injection Volume: 0.25 ml
(§6) Anatomical Site of Injection: Jugular vein
(§7) Samples obtained by subjecting animal to ether anesthesia, and sacrificing animal.
(§8) Each animal was injected via jugular vein 0.25 ml of peptide derivative: to insure sample was injected into vein, the syringe plunger was gently retracted, if blood could be withdrawn, then the sample was injected. Following injection, the syringe was rinsed with blood and injected. 1/2-hour following injection of the peptide derivative, using the same procedure, a TRH dose-response curve was made using the same injection technique.
(§9) 0 time--injection of TRH derivative (80 ugm)
(§10) 1/2 hr.--injection of TRH (4, 40, and 80 ugm)
(§11) 1 hrs.--blood sample collected

Serum Prolactin Level = assay: 6 Point Parallel Line Assay, serum prolactin level after inhibitor then TRH; assay type: in vivo; details: no inhibitor (saline injected)
Experimental: as §1, §2, §3, §4, §5, §6, §7, §8, §9, §10, §11

[2] = test system: guinea pig ileum (opiate receptor site); assay: Guinea pig ileum (GPI) assay for enkephalin activity, electrically stimulated contractions; details: specificity controls; FIGS. 6-9

NC(=O)[C@@H]1CCCN1C(=O)[C@H](Cc1c[nH]cn1)NC(=O)[C@@H]1CCC(=O)N1 [TRH, L-pyroglutamyl-L-histidyl-L-prolinamide]
(I-125) cpm/200 ul blood at THR ([1]; 0.4 μgm TRH): 261 cpm/200 ul | Δ cpm ([1]; 0.4 μgm TRH): +141 cpm | (I-125) cpm/200 ul blood at THR ([1]; 4 μgm TRH): 358 cpm/200 ul | Δ cpm ([1]; 4 μgm TRH): +238 cpm | Serum TSH level (Serum TSH level; FIRST EXPERIMENT, TRH 4 μg): 312 ng/mL | Serum TSH level (Serum TSH level; FIRST EXPERIMENT, TRH 40 μg): 412 ng/mL | Serum TSH level (Serum TSH level; FIRST EXPERIMENT, TRH 80 μg): 1139 ng/mL | Serum TSH level (Serum TSH level; SECOND EXPERIMENT, TRH 4 μg): 167 ng/mL | Serum TSH level (Serum TSH level; SECOND EXPERIMENT, TRH 40 μg): 612 ng/mL | Serum TSH level (Serum TSH level; SECOND EXPERIMENT, TRH 80 μg): 839 ng/mL | Serum Prolactin Level (Serum Prolactin Level; FIRST EXPERIMENT, TRH 4 μg): 61 ng/mL | Serum Prolactin Level (Serum Prolactin Level; FIRST EXPERIMENT, TRH 40 μg): 76 ng/mL | Serum Prolactin Level (Serum Prolactin Level; FIRST EXPERIMENT, TRH 80 μg): 216 ng/mL | Serum Prolactin Level (Serum Prolactin Level; SECOND EXPERIMENT, TRH 4 μg): 46 ng/mL | Serum Prolactin Level (Serum Prolactin Level; SECOND EXPERIMENT, TRH 40 μg): 150 ng/mL | Serum Prolactin Level (Serum Prolactin Level; SECOND EXPERIMENT, TRH 80 μg): 181 ng/mL

N-tosyl-phenylalanine chloromethyl ketone
whether it effects a response on the GPI (neither = no response) [2]: neither
